Holding throughout (format): cell-based, human
Assay [1] has as its system AGS cells. The assay is described as follows: SA-β-Gal histochemical staining. The settings on record: Fig. S4A. The protocol: SA-β-Gal activity was measured following two different approaches. (i) AGS, MKN45 and PANC1 cells (5 × 10^4) were seeded in 24-multiwell dishes and incubated overnight. […] For flow cytometry cell senescence detection, cells were tripsinized, fixed for 15 min with PFA 4% and stained with the CellEvent Senescense Green Flow Cytometry Assay Kit (C10840, Invitrogen) according to manufacturer’s instructions. CellEvent Senescense Green Probe was used at a 1:500 dilution and fluorescence was detected using the filter (Ex488nm/Em530/30) BL1 with a 4-laser Attune NxT Acoustic Cytometer (Thermo Fisher Scientific). […] After 3 h, the treatments were removed, new supplemented medium was added, and cells were incubated for an additional 24 h. Finally, SA-β-Gal staining was performed using the Senescence Cells Histochemical Staining Kit (CS0030-1KT) according to the manufacturer’s instructions.

In assay [2] the test system is PANC1 cells. Nature of the assay: ROS detection by confocal microscopy (DHE, MitoSox). The settings on record: PANC1, 1 h treatment; H2O2 200 µM, CDDP 10 µM, I5 20 µM, I6 20 µM. The protocol:
Tumor cells were seeded at a density of 3 × 10^5 cells in 15 µm 8-well IBIDI plates and incubated overnight. […] Subsequently, cells were stained with 10 μM of dihydroethidium (DHE, cytosolic O2^·- probe, Sigma-Aldrich) or with 5 μM of Mitosox (mitochondrial O2^·- probe, Sigma-Aldrich) for 15–30 min[79] and then visualized on a confocal microscope (Confocal LSM 710 Zeiss, Biomedical Research Institute Alberto Sols, IIBm-CSIC-UAM, Madrid, Spain). The image analysis was realized using the software program Image J.

Assay [3] has as its system AGS cells. The assay is described as follows: Ratio GSH/GSSG, colorimetric kit. As to conditions: AGS, C+ (positive control), relative to Control = 1. The protocol:
(§1) GSH and GSSG levels were determined in AGS and PANC1 cells after 3 and 24 h of treatment with the compounds (using H2O2 as a positive control) with the Glutathione Colorimetric Detection Kit (ThermoFisher) following the manufacturer’s instructions. Thirty minutes after adding the Colorimetric Detection Reagent and the Reaction Mixture, the absorbance was read at 405 nm. A standard curve was generated with each assay to interpolate the sample results. To measure GSSG, standards and samples must be diluted with the Sample Diluent containing 2-vinylpyridine.

Assay [4] relates to PANC1 cells. The assay is described as follows: Ratio GSH/GSSG, colorimetric kit. As to conditions: PANC1, C+ (positive control), relative to Control = 1. The protocol:
as §1

Values joined by “and” are separate entries in the source; they are usually repeats but may differ in a detail not shown here. Identical values can stand only once.

For `OO` [H2O2, reference compound], the “Fold change % Senescence” value in the assay with AGS cells [1] is 52.81% and 54.43% and 58.54%. Besides, in the assay with PANC1 cells [2], the “DHE fluorescence intensity (per cell), cytosolic O2•−” value was 174.023 and 151.84 and 151.685 and 148.486 and 115.72 and 133.113. For the same compound, the GSH/GSSG in the assay with AGS cells [3] was 0.8614 and 0.8667 and 0.9484; with PANC1 cells [4] it was 0.5945 and 0.659 and 0.8185.

Source of the values: paper PMC10959927, “Platinum iodido drugs show potential anti-tumor activity, affecting cancer cell metabolism and inducing ROS and senescence in gastrointestinal cancer cells” (Communications Biology, 2024).
